Data as given in patent US20020137929A1, “1 - (3-heterocyclylphenyl) isothiourea, -isourea, -guanidine and -amidine herbicidal agents” (Intellectual Property Department, BASF Aktiengesellschaft, priority 1998, published 2002).

Assays:
[1] = test system: ORYSAT (Rice, Tebonnet); test: Postemergence herbicidal evaluation; format: in vivo, Oryza sativa, (L.) Tebonnet
Outline: (§1)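 Each compound, dispersed in an acetone/water mix (50/50) carrying 0.5% TWEEN 20, is nozzle-sprayed at 40 psi on approximately two-week-old seedlings at about 0.0156–0.500 kg/ha. Plants are assessed 4–5 weeks afterward on a 0–9 scale relative to control; duplicate tests are averaged.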

[2] = test system: CHEAL (Lambsquarters, Common); test: Postemergence herbicidal evaluation; format: in vivo, Chenopodium album
Outline: as §1

[3] = test system: ECHCG (Barnyardgrass); test: Postemergence herbicidal evaluation; format: in vivo, Echinochloa crus-galli
Outline: as §1

[4] = test system: ZEAMX (Corn, Field); test: Postemergence herbicidal evaluation; format: in vivo, Zea mays
Outline: as §1

[5] = test system: IPOHE (Morningglory, Ivyleaf); test: Preemergence herbicidal evaluation; format: in vivo, Ipomoea hederacea; conditions: rated 4-5 weeks after treatment
Outline: (§2)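 Sown cups got a single aqueous acetone spray of test compound (roughly 0.0156–0.500 kg/ha) before seedlings emerged. Evaluation, 4–5 weeks on, used a 0–9 visual scale covering plant stand, vigor, size, malformation, chlorosis and general appearance compared with controls.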

[6] = test system: IPOHE (Morningglory, Ivyleaf); test: Postemergence herbicidal evaluation; format: in vivo, Ipomoea hederacea
Outline: as §1

[7] = test system: CYPIR (Rice Flatsedge); test: Postemergence weed control under flooded paddy conditions; format: in vivo, Cyperus iria; conditions: postemergence weeds, 3-4 weeks after treatment
Outline: (§3)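 Injury ratings (0–9 scale covering stand, vigor, malformation, size, chlorosis and overall appearance versus control) were made three to four weeks after treatment. Test material, about 0.0313 to 0.500 kg/ha a.i. in 50/50 v/v aqueous/acetone, was added to flood water 1.5 to 3 cm deep over 3 to 5 cm weeds and 1.5 to 2.5 leaf rice.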

[8] = test system: ECHCG (Barnyardgrass); test: Preemergence herbicidal evaluation; format: in vivo, Echinochloa crus-galli; conditions: rated 4-5 weeks after treatment
Outline: as §2

[9] = test system: ABUTH (Velvetleaf); test: Preemergence herbicidal evaluation; format: in vivo, Abutilon theophrasti; conditions: rated 4-5 weeks after treatment
Outline: as §2

[10] = test system: SETVI (Foxtail, Green); test: Postemergence herbicidal evaluation; format: in vivo, Setaria viridis
Outline: as §1

[11] = test system: GLXMAW (Soybean, Williams); test: Preemergence herbicidal evaluation; format: in vivo, Glycine max, (L.) Merr. cv Williams; conditions: rated 4-5 weeks after treatment
Outline: as §2

[12] = test system: CASOB (Sicklepod); test: Preemergence herbicidal evaluation; format: in vivo, Cassia obtusifolia; conditions: rated 4-5 weeks after treatment
Outline: as §2

[13] = test system: ZEAMX (Corn, Field); test: Preemergence herbicidal evaluation; format: in vivo, Zea mays; conditions: rated 4-5 weeks after treatment
Outline: as §2

[14] = test system: CYPSE (Flatsedge); test: Postemergence weed control under flooded paddy conditions; format: in vivo, Cyperus serotinus; conditions: postemergence weeds, 3-4 weeks after treatment
Outline: as §3

[15] = test system: TRZAWR (Wheat, Winter, cv Riband); test: Preemergence herbicidal evaluation; format: in vivo, Triticum aestivum; conditions: rated 4-5 weeks after treatment
Outline: as §2

[16] = test system: CHEAL (Lambsquarters, Common); test: Preemergence herbicidal evaluation; format: in vivo, Chenopodium album; conditions: rated 4-5 weeks after treatment
Outline: as §2

[17] = test system: ABUTH (Velvetleaf); test: Postemergence herbicidal evaluation; format: in vivo, Abutilon theophrasti
Outline: as §1

Question: How did the “Postemergence herbicidal rating ORYSAT” value ([1]; Rate 0.0156 kg/ha) turn out when `C=CCN1C(=O)C(CC(=O)Nc2ccccc2)SC1=Nc1cc(-n2c(=O)cc(C(F)(F)F)n(C)c2=O)c(F)cc1Cl` (stereo not drawn) [Compound 44, 3-Allyl-2-{{2-chloro-5-[3,6-dihydro-3-methyl-2,6-dioxo-4-(trifluoromethyl)-1(2H)-pyrimidinyl]-4-fluorophenyl}imino}-4-oxo-5-thiazolidineacetanilide] was run?
Answer: 3.0

Question: And the “Postemergence herbicidal rating ORYSAT” value ([1]; Rate 0.0313 kg/ha)?
Answer: 4.0

Question: And the “Postemergence herbicidal rating ORYSAT” value ([1]; Rate 0.0625 kg/ha)?
Answer: 4.0

Question: What about the “Postemergence herbicidal rating ORYSAT” value ([1]; Rate 0.1250 kg/ha) of the same compound?
Answer: 4.0

Question: And the “Postemergence herbicidal rating CHEAL” value ([2]; Rate 0.0156 kg/ha)?
Answer: 1.0

Question: What about the “Postemergence herbicidal rating CHEAL” value ([2]; Rate 0.0313 kg/ha) of the same compound?
Answer: 4.0

Question: And the “Postemergence herbicidal rating CHEAL” value ([2]; Rate 0.0625 kg/ha)?
Answer: 5.0

Question: What about the “Postemergence herbicidal rating CHEAL” value ([2]; Rate 0.1250 kg/ha) of the same compound?
Answer: 9.0

Question: And the “Postemergence herbicidal rating ECHCG” value ([3]; Rate 0.0156 kg/ha)?
Answer: 0.0

Question: What about the “Postemergence herbicidal rating ECHCG” value ([3]; Rate 0.0313 kg/ha) of the same compound?
Answer: 1.0

Question: And the “Postemergence herbicidal rating ECHCG” value ([3]; Rate 0.0625 kg/ha)?
Answer: 2.0

Question: What about the “Postemergence herbicidal rating ECHCG” value ([3]; Rate 0.1250 kg/ha) of the same compound?
Answer: 1.0

Question: What about the “Postemergence herbicidal rating ZEAMX” value ([4]; Rate 0.0156 kg/ha) of the same compound?
Answer: 5.0

Question: What about the “Postemergence herbicidal rating ZEAMX” value ([4]; Rate 0.0313 kg/ha) of the same compound?
Answer: 5.0

Question: And the “Postemergence herbicidal rating ZEAMX” value ([4]; Rate 0.0625 kg/ha)?
Answer: 5.0

Question: And the “Postemergence herbicidal rating ZEAMX” value ([4]; Rate 0.1250 kg/ha)?
Answer: 5.0

Question: What about the “Preemergence herbicidal rating IPOHE” value ([5]; rate 0.0156 kg/ha) of the same compound?
Answer: 0.0

Question: What about the “Preemergence herbicidal rating IPOHE” value ([5]; rate 0.0313 kg/ha) of the same compound?
Answer: 0.0

Question: What about the “Preemergence herbicidal rating IPOHE” value ([5]; rate 0.0625 kg/ha) of the same compound?
Answer: 0.0

Question: What about the “Preemergence herbicidal rating IPOHE” value ([5]; rate 0.1250 kg/ha) of the same compound?
Answer: 1.0

Question: And the “Preemergence herbicidal rating IPOHE” value ([5]; rate 0.2500 kg/ha)?
Answer: 0.0

Question: What about the “Preemergence herbicidal rating IPOHE” value ([5]; rate 0.5000 kg/ha) of the same compound?
Answer: 0.0

Question: What about the “Postemergence herbicidal rating IPOHE” value ([6]; Rate 0.0156 kg/ha) of the same compound?
Answer: 9.0

Question: And the “Postemergence herbicidal rating IPOHE” value ([6]; Rate 0.0313 kg/ha)?
Answer: 9.0

Question: What about the “Postemergence herbicidal rating IPOHE” value ([6]; Rate 0.0625 kg/ha) of the same compound?
Answer: 9.0

Question: And the “Postemergence herbicidal rating IPOHE” value ([6]; Rate 0.1250 kg/ha)?
Answer: 9.0

Question: And the “Herbicidal rating CYPIR” value ([7]; rate 0.0313 kg/ha)?
Answer: 5.0

Question: And the “Herbicidal rating CYPIR” value ([7]; rate 0.0625 kg/ha)?
Answer: 6.0

Question: What about the “Herbicidal rating CYPIR” value ([7]; rate 0.1250 kg/ha) of the same compound?
Answer: 6.0

Question: And the “Herbicidal rating CYPIR” value ([7]; rate 0.2500 kg/ha)?
Answer: 9.0

Question: And the “Preemergence herbicidal rating ECHCG” value ([8]; rate 0.0156 kg/ha)?
Answer: 0.0

Question: What about the “Preemergence herbicidal rating ECHCG” value ([8]; rate 0.0313 kg/ha) of the same compound?
Answer: 0.0

Question: And the “Preemergence herbicidal rating ECHCG” value ([8]; rate 0.0625 kg/ha)?
Answer: 0.0

Question: What about the “Preemergence herbicidal rating ECHCG” value ([8]; rate 0.1250 kg/ha) of the same compound?
Answer: 0.0

Question: What about the “Preemergence herbicidal rating ECHCG” value ([8]; rate 0.2500 kg/ha) of the same compound?
Answer: 0.0

Question: And the “Preemergence herbicidal rating ECHCG” value ([8]; rate 0.5000 kg/ha)?
Answer: 0.0

Question: And the “Preemergence herbicidal rating ABUTH” value ([9]; rate 0.0156 kg/ha)?
Answer: 0.0

Question: And the “Preemergence herbicidal rating ABUTH” value ([9]; rate 0.0313 kg/ha)?
Answer: 0.0

Question: What about the “Preemergence herbicidal rating ABUTH” value ([9]; rate 0.0625 kg/ha) of the same compound?
Answer: 0.0

Question: What about the “Preemergence herbicidal rating ABUTH” value ([9]; rate 0.1250 kg/ha) of the same compound?
Answer: 9.0

Question: And the “Preemergence herbicidal rating ABUTH” value ([9]; rate 0.2500 kg/ha)?
Answer: 9.0

Question: And the “Preemergence herbicidal rating ABUTH” value ([9]; rate 0.5000 kg/ha)?
Answer: 9.0

Question: What about the “Postemergence herbicidal rating SETVI” value ([10]; Rate 0.0156 kg/ha) of the same compound?
Answer: 0.0

Question: What about the “Postemergence herbicidal rating SETVI” value ([10]; Rate 0.0313 kg/ha) of the same compound?
Answer: 0.0

Question: What about the “Postemergence herbicidal rating SETVI” value ([10]; Rate 0.0625 kg/ha) of the same compound?
Answer: 2.0

Question: What about the “Postemergence herbicidal rating SETVI” value ([10]; Rate 0.1250 kg/ha) of the same compound?
Answer: 2.0

Question: What about the “Preemergence herbicidal rating GLXMAW” value ([11]; rate 0.0156 kg/ha) of the same compound?
Answer: 0.0

Question: What about the “Preemergence herbicidal rating GLXMAW” value ([11]; rate 0.0313 kg/ha) of the same compound?
Answer: 0.0

Question: And the “Preemergence herbicidal rating GLXMAW” value ([11]; rate 0.0625 kg/ha)?
Answer: 0.0

Question: What about the “Preemergence herbicidal rating GLXMAW” value ([11]; rate 0.1250 kg/ha) of the same compound?
Answer: 0.0

Question: And the “Preemergence herbicidal rating GLXMAW” value ([11]; rate 0.2500 kg/ha)?
Answer: 0.0

Question: And the “Preemergence herbicidal rating GLXMAW” value ([11]; rate 0.5000 kg/ha)?
Answer: 0.0

Question: And the “Preemergence herbicidal rating CASOB” value ([12]; rate 0.0156 kg/ha)?
Answer: 0.0

Question: What about the “Preemergence herbicidal rating CASOB” value ([12]; rate 0.0313 kg/ha) of the same compound?
Answer: 0.0

Question: What about the “Preemergence herbicidal rating CASOB” value ([12]; rate 0.0625 kg/ha) of the same compound?
Answer: 0.0

Question: And the “Preemergence herbicidal rating CASOB” value ([12]; rate 0.1250 kg/ha)?
Answer: 1.0

Question: And the “Preemergence herbicidal rating CASOB” value ([12]; rate 0.2500 kg/ha)?
Answer: 0.0

Question: And the “Preemergence herbicidal rating CASOB” value ([12]; rate 0.5000 kg/ha)?
Answer: 1.0

Question: And the “Preemergence herbicidal rating ZEAMX” value ([13]; rate 0.0156 kg/ha)?
Answer: 0.0

Question: And the “Preemergence herbicidal rating ZEAMX” value ([13]; rate 0.0313 kg/ha)?
Answer: 0.0

Question: And the “Preemergence herbicidal rating ZEAMX” value ([13]; rate 0.0625 kg/ha)?
Answer: 0.0

Question: What about the “Preemergence herbicidal rating ZEAMX” value ([13]; rate 0.1250 kg/ha) of the same compound?
Answer: 1.0

Question: What about the “Preemergence herbicidal rating ZEAMX” value ([13]; rate 0.2500 kg/ha) of the same compound?
Answer: 0.0

Question: And the “Preemergence herbicidal rating ZEAMX” value ([13]; rate 0.5000 kg/ha)?
Answer: 0.0

Question: And the “Herbicidal rating CYPSE” value ([14]; rate 0.0313 kg/ha)?
Answer: 0.0

Question: And the “Herbicidal rating CYPSE” value ([14]; rate 0.0625 kg/ha)?
Answer: 0.0

Question: And the “Herbicidal rating CYPSE” value ([14]; rate 0.1250 kg/ha)?
Answer: 0.0

Question: And the “Herbicidal rating CYPSE” value ([14]; rate 0.2500 kg/ha)?
Answer: 0.0

Question: And the “Preemergence herbicidal rating TRZAWR” value ([15]; rate 0.0156 kg/ha)?
Answer: 0.0

Question: And the “Preemergence herbicidal rating TRZAWR” value ([15]; rate 0.0313 kg/ha)?
Answer: 0.0

Question: What about the “Preemergence herbicidal rating TRZAWR” value ([15]; rate 0.0625 kg/ha) of the same compound?
Answer: 0.0

Question: And the “Preemergence herbicidal rating TRZAWR” value ([15]; rate 0.1250 kg/ha)?
Answer: 0.0

Question: And the “Preemergence herbicidal rating TRZAWR” value ([15]; rate 0.2500 kg/ha)?
Answer: 0.0

Question: And the “Preemergence herbicidal rating TRZAWR” value ([15]; rate 0.5000 kg/ha)?
Answer: 0.0

Question: And the “Preemergence herbicidal rating CHEAL” value ([16]; rate 0.0156 kg/ha)?
Answer: 3.0

Question: And the “Preemergence herbicidal rating CHEAL” value ([16]; rate 0.0313 kg/ha)?
Answer: 5.0

Question: What about the “Preemergence herbicidal rating CHEAL” value ([16]; rate 0.0625 kg/ha) of the same compound?
Answer: 4.0

Question: What about the “Preemergence herbicidal rating CHEAL” value ([16]; rate 0.1250 kg/ha) of the same compound?
Answer: 9.0

Question: And the “Preemergence herbicidal rating CHEAL” value ([16]; rate 0.2500 kg/ha)?
Answer: 9.0

Question: And the “Preemergence herbicidal rating CHEAL” value ([16]; rate 0.5000 kg/ha)?
Answer: 9.0

Question: And the “Postemergence herbicidal rating ABUTH” value ([17]; Rate 0.0156 kg/ha)?
Answer: 9.0

Question: What about the “Postemergence herbicidal rating ABUTH” value ([17]; Rate 0.0313 kg/ha) of the same compound?
Answer: 7.0

Question: And the “Postemergence herbicidal rating ABUTH” value ([17]; Rate 0.0625 kg/ha)?
Answer: 9.0

Question: And the “Postemergence herbicidal rating ABUTH” value ([17]; Rate 0.1250 kg/ha)?
Answer: 9.0
